According to the NIST ThermoML archive (doi:10.1021/je060107n):
± gives the expanded uncertainty stated by the source.

Experiment: mn = molality of the nth substance listed, in mol/kg
Conditions: 101 kPa, Liquid; for viscosity: Capillary tube (Ostwald / Ubbelohde) method; for speed of sound: Linear variable-path acoustic interferometer

CC(=O)[O-].CC(=O)[O-].[Mg+2] [magnesium acetate] + O
Conditions | speed of sound, 273.15 K [m/s] | speed of sound, 278.15 K [m/s] | speed of sound, 283.15 K [m/s] | speed of sound, 288.15 K [m/s] | viscosity, 273.15 K [mPa·s] | viscosity, 278.15 K [mPa·s] | viscosity, 283.15 K [mPa·s] | viscosity, 288.15 K [mPa·s] | viscosity, 293.15 K [mPa·s]
m1 = 0.0414 | 1411.1 ± 1.8 | 1433.9 ± 1.9 | 1453.9 ± 1.9 | 1471.7 ± 1.9 | 1.895 ± 0.026 | 1.603 ± 0.022 | 1.374 ± 0.019 | 1.196 ± 0.016 | 1.052 ± 0.014
m1 = 0.0831 | 1421.7 ± 1.9 | 1443.6 ± 1.9 | 1464.2 ± 1.9 | 1481.5 ± 1.9 | 1.974 ± 0.027 | 1.663 ± 0.023 | 1.423 ± 0.02 | 1.238 ± 0.017 | 1.089 ± 0.015
m1 = 0.1671 | 1435.8 ± 1.9 | 1458.6 ± 1.9 | 1477 ± 1.9 | 1494.1 ± 1.9 | 2.142 ± 0.03 | 1.805 ± 0.025 | 1.54 ± 0.021 | 1.335 ± 0.018 | 1.17 ± 0.016
m1 = 0.4247 | 1486.1 ± 1.9 | 1504.5 ± 1.9 | 1522.7 ± 1.9 | 1535.1 ± 1.9 | 2.763 ± 0.04 | 2.301 ± 0.033 | 1.954 ± 0.027 | 1.677 ± 0.023 | 1.461 ± 0.02
m1 = 0.646 | 1523.6 ± 1.9 | 1539.4 ± 1.9 | 1553.8 ± 1.9 | 1566.5 ± 1.9 | 3.52 ± 0.05 | 2.887 ± 0.042 | 2.444 ± 0.034 | 2.072 ± 0.029 | 1.788 ± 0.024
m1 = 0.8751 | 1563.5 ± 1.9 | 1571.6 ± 1.9 | 1584.2 ± 1.9 | 1601.1 ± 1.9 | 4.302 ± 0.064 | 3.533 ± 0.051 | 2.956 ± 0.042 | 2.499 ± 0.035 | 2.15 ± 0.029
m1 = 1.106 | 1599.6 ± 1.9 | 1611.8 ± 1.9 | 1622.1 ± 1.9 | 1631.4 ± 1.9 | 5.537 ± 0.081 | 4.511 ± 0.066 | 3.725 ± 0.053 | 3.138 ± 0.044 | 2.678 ± 0.037
m1 = 1.354 | 1633.9 ± 1.9 | 1644.1 ± 1.9 | 1651.4 ± 2 | 1659.4 ± 2 | 7.125 ± 0.093 | 5.709 ± 0.085 | 4.687 ± 0.068 | 3.895 ± 0.055 | 3.294 ± 0.046
m1 = 1.608 | 1670.3 ± 2 | 1679.6 ± 2 | 1685.9 ± 2 | 1692.8 ± 2 | 7.125 ± 0.15 | 5.709 ± 0.085 | 4.687 ± 0.068 | 3.895 ± 0.055 | 3.294 ± 0.046
m1 = 1.866 | 1705.9 ± 2 | 1713 ± 2 | 1718.2 ± 2 | 1722.3 ± 2 | 12.12 ± 0.17 | 9.522 ± 0.15 | 7.615 ± 0.11 | 6.192 ± 0.09 | 5.143 ± 0.073
m1 = 2.134 | 1742.2 ± 2 | 1746.8 ± 2 | 1750.4 ± 2 | 1752.7 ± 2 | 16.35 ± 0.27 | 12.57 ± 0.2 | 9.905 ± 0.15 | 8.005 ± 0.12 | 6.573 ± 0.095
m1 = 2.411 | 1777.1 ± 2 | 1780.1 ± 2 | 1781.4 ± 2 | 1782.9 ± 2 | 23.36 ± 0.36 | 17.59 ± 0.29 | 13.67 ± 0.21 | 10.8 ± 0.16 | 8.745 ± 0.13
m1 = 2.622 | 1797.1 ± 2 | 1799.2 ± 2 | 1799.1 ± 2 | 1799.1 ± 2 | 28.17 ± 0.48 | 21.2 ± 0.35 | 16.25 ± 0.26 | 12.79 ± 0.2 | 10.25 ± 0.15
m1 = 3.043 | 1840.9 ± 2.1 | 1839.8 ± 2.1 | 1838.2 ± 2.1 | 1835.6 ± 2.1 | 45.46 ± 0.99 | 33.22 ± 0.58 | 24.92 ± 0.41 | 19.07 ± 0.3 | –
m1 = 3.437 | 1885.2 ± 2.1 | 1881.6 ± 2.1 | 1877.4 ± 2.1 | 1872.2 ± 2.1 | 85.35 ± 1.8 | 59.47 ± 1.1 | 43.12 ± 0.76 | 31.95 ± 0.54 | –
m1 = 3.819 | 1910.1 ± 2.1 | 1903.6 ± 2.1 | 1897.9 ± 2.1 | 1891.9 ± 2.1 | – | – | – | – | –
m1 = 4.001 | – | – | – | – | 167.7 ± 5.4 | 110.6 ± 2.6 | 77.03 ± 1.5 | 55.77 ± 0.97 | –
m1 = 4.547 | 1953.7 ± 2.2 | 1945.3 ± 2.2 | 1936.1 ± 2.2 | 1927.4 ± 2.1 | – | – | – | – | –
m1 = 4.563 | – | – | – | – | 374.7 ± 14 | 234.4 ± 7.8 | 153.7 ± 4.1 | 105.5 ± 2.3 | –
m1 = 4.929 | – | – | – | – | – | – | 208.4 ± 5.9 | 140.3 ± 3.6 | –
m1 = 5.165 | – | – | 1964.1 ± 2.2 | 1953.3 ± 2.2 | – | – | – | – | –
